Data reported in ChEMBL document CHEMBL1201862, “PubChem BioAssay data set” (2004).
Activity calls are given as the source filed them.

Key:
[1] = molecular target: Genome polyprotein (dengue virus type 2, UniProt P29990); test: Dengue-2 NS5 methyltransferase inhibitors, primary screen, biochemical, confirmation dose response (AID 588689); assay type: functional
[2] = molecular target: T1, Long-chain-fatty-acid--AMP ligase FadD28 (Mycobacterium tuberculosis, UniProt P9WQ59); test: Fluorescence polarization aasay to screen for inhibitors that compete for the binding of FadD28 to a bisubstrate Measured in Biochemical System Using Plate Reader - 2147-01_Inhibitor_Dose_CherryPick_Activity.; assay type: functional, Mycobacterium tuberculosis H37Rv
T1 sequence (P9WQ59 whole entry): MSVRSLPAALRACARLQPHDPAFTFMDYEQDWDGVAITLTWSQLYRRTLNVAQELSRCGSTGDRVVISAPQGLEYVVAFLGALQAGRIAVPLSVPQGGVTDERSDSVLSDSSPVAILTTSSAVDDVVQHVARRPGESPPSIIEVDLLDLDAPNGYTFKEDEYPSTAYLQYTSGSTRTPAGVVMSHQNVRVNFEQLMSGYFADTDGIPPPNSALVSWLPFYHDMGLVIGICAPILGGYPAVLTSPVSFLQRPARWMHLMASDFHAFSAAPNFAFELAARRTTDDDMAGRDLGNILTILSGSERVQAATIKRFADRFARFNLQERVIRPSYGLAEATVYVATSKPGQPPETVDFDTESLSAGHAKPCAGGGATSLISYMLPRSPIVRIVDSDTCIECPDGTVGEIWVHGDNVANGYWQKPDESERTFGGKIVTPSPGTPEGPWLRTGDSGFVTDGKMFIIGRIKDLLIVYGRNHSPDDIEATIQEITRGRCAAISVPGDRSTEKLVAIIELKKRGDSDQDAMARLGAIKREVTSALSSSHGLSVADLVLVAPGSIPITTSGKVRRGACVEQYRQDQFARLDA

[3] = molecular target: T2, Replicative DNA helicase DnaB (Mycobacterium tuberculosis, UniProt P9WMR3); test: DnaB intein splicing inhibitors, dose response, biochemical, cell-free fluorescence (AID 449749); assay type: functional
T2 sequence (P9WMR3 whole entry): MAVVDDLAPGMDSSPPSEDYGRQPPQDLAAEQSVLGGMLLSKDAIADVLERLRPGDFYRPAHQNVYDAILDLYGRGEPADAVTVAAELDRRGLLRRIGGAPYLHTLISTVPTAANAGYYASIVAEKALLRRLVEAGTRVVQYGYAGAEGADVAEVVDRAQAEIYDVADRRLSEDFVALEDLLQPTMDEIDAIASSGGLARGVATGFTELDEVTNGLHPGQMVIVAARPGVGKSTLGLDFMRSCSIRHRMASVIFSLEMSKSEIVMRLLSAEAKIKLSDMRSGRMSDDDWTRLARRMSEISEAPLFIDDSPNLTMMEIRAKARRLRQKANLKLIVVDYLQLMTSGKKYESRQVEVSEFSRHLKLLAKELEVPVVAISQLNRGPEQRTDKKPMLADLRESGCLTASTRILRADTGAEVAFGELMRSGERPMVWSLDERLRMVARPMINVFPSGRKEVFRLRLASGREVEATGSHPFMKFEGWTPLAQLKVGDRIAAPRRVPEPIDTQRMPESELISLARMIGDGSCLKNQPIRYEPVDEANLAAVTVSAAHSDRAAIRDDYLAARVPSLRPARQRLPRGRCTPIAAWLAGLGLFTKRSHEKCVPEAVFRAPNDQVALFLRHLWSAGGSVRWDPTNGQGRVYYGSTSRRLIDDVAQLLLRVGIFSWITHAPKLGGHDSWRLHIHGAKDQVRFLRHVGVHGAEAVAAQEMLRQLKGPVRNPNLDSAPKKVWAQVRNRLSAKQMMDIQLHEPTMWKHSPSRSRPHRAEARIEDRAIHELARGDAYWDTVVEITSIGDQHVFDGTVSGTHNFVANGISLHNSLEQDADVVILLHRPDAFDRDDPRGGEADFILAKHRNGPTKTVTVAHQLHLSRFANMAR

[4] = tested on: HEK293; test: inhibitors of LMP1-driven NF-kB reporter, dose response, cell-based, HEK293, luciferase, cherry-pick (AID 588343); assay type: functional; conditions: Homo sapiens
[5] = tested on: Vero; test: Vero cell cytotoxicity, cytotoxicity control for flavivirus capping enzyme inhibitors (AID 588742); assay type: functional; conditions: Chlorocebus sabaeus
[6] = molecular target: T3, Protein RecA (Mycobacterium tuberculosis, UniProt P9WHJ3); test: Fluorescence Cell-Free Homogeneous Dose Retest to Identify Inhibitors of RecA-Intein Splicing Activity. [Related pubchem assays (depositor defined):AID2097, AID2223, AID489010, AID492950]; assay type: functional
T3 sequence (P9WHJ3 whole entry): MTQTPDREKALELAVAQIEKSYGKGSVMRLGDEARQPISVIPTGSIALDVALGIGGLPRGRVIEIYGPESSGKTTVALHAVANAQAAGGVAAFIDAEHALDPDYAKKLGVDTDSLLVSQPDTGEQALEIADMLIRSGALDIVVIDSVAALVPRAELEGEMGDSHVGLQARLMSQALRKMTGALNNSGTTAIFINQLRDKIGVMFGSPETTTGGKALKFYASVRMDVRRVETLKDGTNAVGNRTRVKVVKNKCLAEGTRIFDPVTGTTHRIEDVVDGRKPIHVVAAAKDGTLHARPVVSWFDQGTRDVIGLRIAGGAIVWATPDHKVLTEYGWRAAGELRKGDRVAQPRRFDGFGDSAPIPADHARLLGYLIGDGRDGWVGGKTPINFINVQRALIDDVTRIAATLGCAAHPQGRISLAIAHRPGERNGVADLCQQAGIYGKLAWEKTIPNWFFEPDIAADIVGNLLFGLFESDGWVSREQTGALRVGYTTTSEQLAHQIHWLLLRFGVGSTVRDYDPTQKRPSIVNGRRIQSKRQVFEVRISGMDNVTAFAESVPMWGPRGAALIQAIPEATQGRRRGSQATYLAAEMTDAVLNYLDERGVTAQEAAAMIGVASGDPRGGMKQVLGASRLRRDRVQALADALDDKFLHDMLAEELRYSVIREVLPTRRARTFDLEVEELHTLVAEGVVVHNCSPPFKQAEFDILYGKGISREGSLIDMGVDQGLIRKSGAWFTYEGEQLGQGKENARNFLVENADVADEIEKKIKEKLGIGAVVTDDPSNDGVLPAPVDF

[7] = molecular target: Latent membrane protein 1 (Human herpesvirus 4 (strain B95-8), UniProt P03230); test: TES1-eGFP NF-kB reporter inhibition versus Tet-On dsRED, dose response, selectivity assay for LMP1 NF-kB inhibitor project, imaging, HEK293T, dual-color eGFP/dsRED, cherry-picks (AID 588398); assay type: functional, cell-based
[8] = molecular target: Glycogen synthase kinase-3 alpha (Homo sapiens, UniProt P49840); test: Inhibition of Human GSK-3 alpha Activity Measured in Biochemical System Using Microfluidics - 2063-06_Inhibitor_Dose_DryPowder_Activity_Set2. [Related pubchem assays (depositor defined):AID2709]
[9] = molecular target: Cyclin-dependent kinase 5/CDK5 activator 1 (Homo sapiens, UniProt Q00535); test: CDK5-p25 kinase inhibitors, specificity check, dose response, selectivity assay for GSK-3 alpha inhibitor project, biochemical, microfluidic mobility shift, dry powder (AID 588430)
[10] = molecular target: Glycogen synthase kinase-3 beta (Homo sapiens, UniProt P49841); test: Inhibition of Human GSK-3 beta Activity Measured in Biochemical System Using Microfluidics - 2063-05_Inhibitor_Dose_DryPowder_Activity_Set2. [Related pubchem assays (depositor defined):AID2709]
Glycogen synthase kinase-3 beta, sequence (P49841 whole entry): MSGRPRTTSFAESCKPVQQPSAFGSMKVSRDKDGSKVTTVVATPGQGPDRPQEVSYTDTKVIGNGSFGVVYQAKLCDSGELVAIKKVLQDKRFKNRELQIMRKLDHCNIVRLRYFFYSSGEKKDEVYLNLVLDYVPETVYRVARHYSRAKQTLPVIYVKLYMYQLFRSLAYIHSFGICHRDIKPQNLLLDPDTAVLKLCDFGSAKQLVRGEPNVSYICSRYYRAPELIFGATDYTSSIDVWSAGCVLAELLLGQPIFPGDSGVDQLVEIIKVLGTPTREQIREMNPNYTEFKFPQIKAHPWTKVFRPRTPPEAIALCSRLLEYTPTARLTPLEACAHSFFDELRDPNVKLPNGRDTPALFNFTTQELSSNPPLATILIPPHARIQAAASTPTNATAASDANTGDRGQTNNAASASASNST

Cyclin-dependent kinase 5/CDK5 activator 1, sequence (Q00535 whole entry): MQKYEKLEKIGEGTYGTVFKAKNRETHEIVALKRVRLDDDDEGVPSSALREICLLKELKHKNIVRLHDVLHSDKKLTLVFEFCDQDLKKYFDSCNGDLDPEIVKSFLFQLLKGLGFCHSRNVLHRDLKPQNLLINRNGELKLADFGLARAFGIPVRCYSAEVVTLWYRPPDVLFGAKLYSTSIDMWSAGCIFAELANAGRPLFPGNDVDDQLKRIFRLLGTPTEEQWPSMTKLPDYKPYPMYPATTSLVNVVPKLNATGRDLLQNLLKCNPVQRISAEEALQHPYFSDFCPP
Cyclin-dependent kinase 5/CDK5 activator 1, sequence (Q15078 whole entry, further chain): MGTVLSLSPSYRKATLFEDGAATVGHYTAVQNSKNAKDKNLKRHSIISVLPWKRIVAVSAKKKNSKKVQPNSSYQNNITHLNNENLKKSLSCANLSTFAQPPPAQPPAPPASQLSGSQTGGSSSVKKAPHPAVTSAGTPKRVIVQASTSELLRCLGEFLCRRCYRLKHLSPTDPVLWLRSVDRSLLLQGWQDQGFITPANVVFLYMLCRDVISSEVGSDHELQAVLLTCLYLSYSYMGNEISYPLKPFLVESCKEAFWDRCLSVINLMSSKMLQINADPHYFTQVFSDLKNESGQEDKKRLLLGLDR
Latent membrane protein 1, sequence (P03230 whole entry): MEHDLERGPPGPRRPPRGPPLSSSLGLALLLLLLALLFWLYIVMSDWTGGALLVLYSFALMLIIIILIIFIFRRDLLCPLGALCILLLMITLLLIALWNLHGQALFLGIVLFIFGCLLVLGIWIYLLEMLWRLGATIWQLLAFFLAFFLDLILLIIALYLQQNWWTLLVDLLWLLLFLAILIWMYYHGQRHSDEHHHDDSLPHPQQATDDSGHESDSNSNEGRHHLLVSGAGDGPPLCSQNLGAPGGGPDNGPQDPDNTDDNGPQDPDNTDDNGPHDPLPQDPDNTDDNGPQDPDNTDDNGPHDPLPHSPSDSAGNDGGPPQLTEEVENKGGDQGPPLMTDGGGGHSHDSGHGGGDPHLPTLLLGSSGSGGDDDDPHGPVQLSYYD
Genome polyprotein, sequence (P29990 2492-3391 limits assumed): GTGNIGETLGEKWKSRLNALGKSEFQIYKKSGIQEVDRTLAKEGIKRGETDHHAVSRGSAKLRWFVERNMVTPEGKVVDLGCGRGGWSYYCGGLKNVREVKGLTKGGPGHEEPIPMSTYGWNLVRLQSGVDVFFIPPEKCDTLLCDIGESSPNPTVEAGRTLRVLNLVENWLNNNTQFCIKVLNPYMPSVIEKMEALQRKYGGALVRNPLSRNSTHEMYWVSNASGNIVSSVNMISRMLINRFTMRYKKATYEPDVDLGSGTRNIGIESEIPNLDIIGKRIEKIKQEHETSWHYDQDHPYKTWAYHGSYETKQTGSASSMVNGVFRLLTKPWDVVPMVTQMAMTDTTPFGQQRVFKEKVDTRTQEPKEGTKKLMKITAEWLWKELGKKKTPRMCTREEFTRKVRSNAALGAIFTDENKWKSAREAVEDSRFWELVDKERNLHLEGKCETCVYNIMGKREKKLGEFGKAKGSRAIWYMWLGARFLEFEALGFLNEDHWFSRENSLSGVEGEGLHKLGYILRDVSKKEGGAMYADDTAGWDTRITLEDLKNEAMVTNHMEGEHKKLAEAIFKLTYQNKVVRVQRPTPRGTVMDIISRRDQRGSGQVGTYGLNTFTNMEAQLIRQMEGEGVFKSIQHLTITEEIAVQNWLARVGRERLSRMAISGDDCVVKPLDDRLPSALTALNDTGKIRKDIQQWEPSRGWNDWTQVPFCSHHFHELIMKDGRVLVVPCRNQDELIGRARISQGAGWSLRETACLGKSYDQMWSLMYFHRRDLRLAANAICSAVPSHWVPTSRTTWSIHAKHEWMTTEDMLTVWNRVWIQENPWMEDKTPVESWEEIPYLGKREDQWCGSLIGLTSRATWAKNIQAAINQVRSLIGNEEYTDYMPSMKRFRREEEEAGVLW
Glycogen synthase kinase-3 alpha, sequence (P49840 whole entry): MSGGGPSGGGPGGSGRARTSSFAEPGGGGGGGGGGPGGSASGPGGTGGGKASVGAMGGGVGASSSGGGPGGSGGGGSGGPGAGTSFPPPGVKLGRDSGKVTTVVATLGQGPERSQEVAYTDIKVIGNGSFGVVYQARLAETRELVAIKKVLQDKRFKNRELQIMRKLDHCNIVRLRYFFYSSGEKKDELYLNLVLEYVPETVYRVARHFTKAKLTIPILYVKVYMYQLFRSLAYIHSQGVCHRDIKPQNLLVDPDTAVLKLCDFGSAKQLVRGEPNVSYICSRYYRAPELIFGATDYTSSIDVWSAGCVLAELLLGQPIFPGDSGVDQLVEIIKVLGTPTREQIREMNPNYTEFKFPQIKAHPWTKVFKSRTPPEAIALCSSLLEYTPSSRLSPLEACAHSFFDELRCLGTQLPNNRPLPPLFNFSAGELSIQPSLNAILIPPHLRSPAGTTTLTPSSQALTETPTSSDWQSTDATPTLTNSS

CCc1ccc(/C=C/C(=O)C2C(=O)c3ccccc3C2=O)cc1
active: IC50 [1] 62.8 µM | AC50 [2] 80.4 µM | AC50 [3] 51.1 µM | AC50 [4] 4.59 µM | CC50 [5] 34.7 µM | EC50 [6] 22.7 µM | AC50 [7] 27.4 µM

O=C1c2ccccc2-c2onc3ccc(NCCCN4CCNC4)c1c23
active: AC50 [8] 0.52 µM | AC50 [9] 76.2 µM | AC50 [10] 0.161 µM
